In US20210220331A1, “INHIBITORS OF IRES-MEDIATED PROTEIN SYNTHESIS” (The Regents of the University of California, priority 2016, published 2021):

Key:
hnRNP A1 [1] = molecular target: T1, hnRNP A1 (Homo sapiens, UniProt P09651); assay: Photo-cross-linked inhibitor bead binding assay; details: vs control beads, anti-GST immunoblot
T1 construct: pGEX-2T/hnRNP A1 (full length hnRNP A1) and pGEX-2T/UP1 GST fusions; made in house; host or cells: HEK293 cells
Experimental: (§1) Photo-cross-linked C11 and IRES-J007 beads were prepared as previously described (25). Activated Sepharose beads were washed three times with 1 mM aqueous HCl followed by coupling solution (100 mM NaHCO3 and 50% dioxane mixture). A solution of photoaffinity linker in coupling solution was subsequently added to the beads and incubated at 37° C. for 2 h. After washing five times with coupling solution the beads were blocked and placed in a spin column and washed three times with water and methanol. The beads were subsequently irradiated in a UV cross-linker at 365 nm (4 J/cm2) and washed with methanol. Purified GST-tagged native or mutant hnRNP A1 proteins were added to 20 μl of C11 or J007 cross-linked or control uncross-linked beads. After incubating at 4° C. for 24 h, the beads were washed three times and bound proteins eluted in 10% SDS-PAGE sample buffer at 100° C. for 5 min. and the eluted proteins were resolved by SDS-PAGE and immunoblotted using GST antibodies.
(§2) The configurations with the most favorable binding energies were visualized using PyMOL v1.5.6. The electrostatic surface representation of the crystal structure of UP1 is shown with RNP residues of RRM1 and RRM2 labeled in blue. In the 90°-rotated model, the inhibitor interaction pocket is shown in yellow. The inset is a close-up of C11 and IRES-J007 binding to the potential binding site on UP1. Residues predicted to interact with the inhibitors are labeled. (B) Purified GST-tagged wild-type hnRNP A1 (A1) and mutant A1 (4ΔA1) proteins harboring alanine substitutions at all four potential binding sites (120, 123,124 and 171) were added to uncross-linked, C11 and J007-cross-linked beads. Isolated wild-type (A1) and mutant (4ΔA1) proteins were resolved by SDS-PAGE and silver-stained to monitor purity (top panels). The binding of A1 to control, C11 and J007 beads was detected by immunoblotting with GST antibodies (bottom panel). (C) Inhibition of basal IRES activity in 293T cells upon treatment with C11 or IRES-J007. IRES reporter activity was assessed following 24 h treatment with 50 nM concentrations of each inhibitor as indicated. The mean and +SD are shown for three independent experiments. (D) RNA-pull down assays utilizing biotinylated cyclin D1 or c-MYC IRES RNAs of 293T cell extracts treated with the inhibitors as in FIG. 2C.
(§3) To further examine how C11 and IRES-J007 inhibit hnRNP A1 function, used in silico docking analysis was used to create a potential model for the binding of these inhibitors to UP1. […] The purified proteins were then incubated with control, C11 or J007 beads and binding analyzed by immunoblotting using anti-GST antibodies. […]

hnRNP A1 [2] = molecular target: T2, hnRNP A1 (Homo sapiens, UniProt P09651, D123A/H120A/N171A/Y124A); assay: Photo-cross-linked inhibitor bead binding assay; details: alanine substitutions at 120, 123, 124 and 171
T2 construct: pGEX-2T/hnRNP A1 (full length hnRNP A1) and pGEX-2T/UP1 GST fusions; made in house; host or cells: HEK293 cells
Experimental: as §1, §2, §3

human c-myc IRES = assay: Dicistronic IRES mRNA reporter assay (firefly luciferase), c-myc IRES; format: cell-based; details: 293T cells, 50 nM, 24 h
LN229 cells [3] = assay: Combination analysis with PP242 (XTT, combination index) in LN229; format: cell-based; details: combination of PP242 and analog, CI=1.0 dose additive, CI<0.5 synergy, CI<0.3 strong synergy
Excerpt: Fold decrease in either PP242-induced cyclin D1 or c-MYC IRES activity in LN229 relative to values obtained with the parent compound C11 are shown for each analog. […] CI=1.0 (dose additive), CI<0.5 (synergy), CI<0.3 (strong synergy).
The structure-activity relationships (SAR) for C11 and related compounds were investigated by synthesizing and testing the analogs listed in Table 1. […] The degree of apoptotic cell death following co-treatment with analog and PP242 was also monitored.

LN229 cells [4] = assay: Apoptosis via Annexin V staining in LN229; format: cell-based; details: LN229 cotreated with PP242 (50 nM) and analog (100 nM), 24 h

T1 sequence (P09651 whole entry, the tested form may be a part): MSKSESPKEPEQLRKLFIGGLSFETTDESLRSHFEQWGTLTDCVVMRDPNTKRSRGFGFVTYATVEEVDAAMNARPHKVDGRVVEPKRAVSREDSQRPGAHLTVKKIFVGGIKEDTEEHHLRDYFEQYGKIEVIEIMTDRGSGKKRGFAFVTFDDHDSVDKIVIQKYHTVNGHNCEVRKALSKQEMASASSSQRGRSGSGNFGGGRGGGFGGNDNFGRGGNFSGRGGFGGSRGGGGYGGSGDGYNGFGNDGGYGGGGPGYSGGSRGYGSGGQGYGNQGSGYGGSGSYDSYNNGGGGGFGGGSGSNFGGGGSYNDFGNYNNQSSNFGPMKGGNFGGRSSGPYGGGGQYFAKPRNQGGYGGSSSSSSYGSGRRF
T2 sequence (P09651 whole entry H120A/D123A/Y124A/N171A, the tested form may be a part): as the sequence (P09651 whole entry, the tested form may be a part) above, with H120A, D123A, Y124A, N171A counted along it

Compound | binding of native GST-tagged hnRNP A1 to inhibitor-cross-linked beads (hnRNP A1 [1]) | amount of mutant hnRNP A1 (4ΔA1) bound to inhibitor beads relative to native hnRNP A1 (hnRNP A1 [2]) | basal c-MYC IRES activity (human c-myc IRES) | CI ED50, 1:100 (combination index) (LN229 cells [3]) | % Apoptosis (100 nM) (LN229 cells [4]) [%]
COc1ccc(CN2C(=O)C(Cl)=C(Cl)C2=O)c(OC)c1 [Compound C11, reference compound] | bound | markedly reduced | reduced IRES activity | 0.50 | 25.9
COc1ccc(CN2C(=O)c3ccccc3C2=O)c(OC)c1 [IRES-J007, 2-((2,4-Dimethoxyphenyl)methyl)isoindoline-1,3-dione] | bound | markedly reduced | reduced IRES activity | 0.42 | 62.4
